Measurements from article PMC10674894 (Viruses, 2023).

Experiments:
Vero cells = assay: Cytotoxicity MTT assay in Vero cells (MNTD, CC50); assay type: cell-based, African green monkey
CHIKV DRDE-07 = assay: In vitro screening against CHIKV (CPE inhibition and MTT cell viability); assay type: cell-based, chikungunya virus; details: for % Cell viability / CPE: Table S1, CHIKV-infected Vero cells; for % Cell viability / Cell Viability: 72 hpi; for % Cell viability: MTT assay; for CPE: arbitrary score of cytopathic effect at >48 hpi; for Cell Viability: CHIKV-infected Vero cells treated at MNTD, MTT, cell control + DMSO = 100%
[1] = maximum nontoxic dose in Vero cells, MTT

Compound | MNTD (Vero cells; Table S1, Vero cells) [µM] | % Cell viability (CHIKV DRDE-07) [%] | CPE (CHIKV DRDE-07) | MNTD (Vero cells; [1]) [µM] | Cell Viability (CHIKV DRDE-07) [%]
COc1cc(/C=N/NC(=O)c2cccnc2)cc(OC)c1OC [DCR27, (E)-N'-(3,4,5-trimethoxybenzylidene)nicotinohydrazide] | 31.25 | 21.26 | ++++ (>60% (++++)) |  | 
N#Cc1ccccc1N1CCCCC1 [DCR140, 2-Piperidin-1-yl-benzonitrile] | 250 | 14.97 | ++++ (>60% (++++)) |  | 
CC1=C(C(=O)OCCN(C)C)C(c2ccc(N(C)C)cc2)NC(=O)N1 (centres unmarked) [DCR109, 2‐(dimethylamino)ethyl 4‐[4‐(dimethylamino)phenyl]‐6‐methyl‐2‐oxo‐1,2,3,4‐tetrahydropyrimidine‐5‐carboxylate] | 62.5 | 15.11 | ++++ (>60% (++++)) |  | 
O=C(N/N=C/c1ccc(Cl)cc1)c1cccnc1 [DCR25, (E)-N'-(4-chlorobenzylidene)nicotinohydrazide] | 62.5 | 30.15 | ++++ (>60% (++++)) |  | 
O=C(N/N=C/c1ccco1)c1cccnc1 [DCR21, (E)-N'-(furan-2-ylmethylene)nicotinohydrazide] | 62.5 | 0 | ++++ (>60% (++++)) |  | 
CC1CN(c2ccccc2C#N)CC(C)N1 (centres unmarked) [DCR142, 2-(3,5-Dimethyl-piperazin-1-yl)-benzonitrile] | 125 | 13.08 | ++++ (>60% (++++)) |  | 
O=C(NNC(=O)c1ccccc1Cl)c1ccncc1 [DCR10, N'-(2-chlorobenzoyl)isonicotinohydrazide] | 31.25 | 21.19 | ++++ (>60% (++++)) |  | 
CCOc1cc(/C=N/NC(=O)c2cccnc2)ccc1O [DCR18, (E)-N'-(3-ethoxy-4-hydroxybenzylidene)nicotinohydrazide] | 31.25 | 15.39 | ++++ (>60% (++++)) |  | 
CC1(C)CC(=O)C2=C(C1)OC1=C(C(=O)CC(C)(C)C1)C2c1ccccn1 [DCR132, 3,3,6,6‐tetramethyl‐9‐(pyridin‐2‐yl)‐2,3,4,5,6,7,8,9‐octahydro‐1H‐xanthene‐1,8‐dione] | 125 | 9.06 | ++++ (>60% (++++)) |  | 
C/C(=N\NC(=O)c1ccncc1)c1ccc(O)cc1 [DCR50, (E)-N'-(1-(4-hydroxyphenyl)ethylidene)isonicotinohydrazide] | 62.5 | 18.01 | ++++ (>60% (++++)) |  | 
O=C(N/N=C/c1cccc(Br)c1)c1cccnc1 [DCR22, (E)-N'-(3-bromobenzylidene)nicotinohydrazide] | 15.6 | 19.28 | ++++ (>60% (++++)) |  | 
(E)-N'-(5-bromo-2-methoxybenzylidene)isonicotinohydrazide [DCR39] | 31.25 | 3.81 | ++++ (>60% (++++)) |  | 
CC1=C(C(=O)OCCN(C)C)C(c2ccc(N(C)C)cc2)NC(=S)N1 (centres unmarked) [DCR111, 2‐(dimethylamino)ethyl 4‐[4‐(dimethylamino)phenyl]‐6‐methyl‐2‐sulfanylidene‐1,2,3,4‐tetrahydropyrimidine‐5‐carboxylate] | 62.5 | 10.08 | ++++ (>60% (++++)) |  | 
CCOc1ccc(-c2cc(-c3ccc(O)cc3)nn2C(=O)c2cccnc2)cc1OC [DCR58, 4-[5-(4-ethoxy-3-methoxyphenyl)-1-(pyridine-3-carbonyl)-1H-pyrazol-3-yl]phenol] | 15.62 | 8.17 | ++++ (>60% (++++)) |  | 
C/C(=N\NC(=O)c1cccnc1)c1ccc(O)cc1 [DCR45, (E)-N'-(1-(4-hydroxyphenyl)ethylidene)nicotinohydrazide] | 31.25 | 15.55 | ++++ (>60% (++++)) |  | 
COc1cccc2nc(N)nc(N)c12 [DCR 139, 5-methoxy-quinazoline-2,4-diamine] | 250 |  | ++ (50-30% (++)) | 250 | 57
O=C(N/N=C/c1ccccc1)c1cccnc1 [DCR14, (E)-N'-benzylidenenicotinohydrazide] | 31.25 | 22.93 | ++++ (>60% (++++)) |  | 
O=C1NC(c2ccc(OC(F)(F)F)cc2)c2c(ccc3ccccc23)O1 (centres unmarked) [DCR71, 1-[4-(trifluoromethoxy)phenyl]-1H,2H,3H-naphtho[1,2-e][1,3]oxazin-3-one] | 43.42 | 7.44 | ++++ (>60% (++++)) |  | 
CC1(C)CC(=O)C2=C(C1)OC1=C(C(=O)CC(C)(C)C1)C2c1ccccc1Cl [DCR124, 9‐(2‐chlorophenyl)‐3,3,6,6‐tetramethyl‐2,3,4,5,6,7,8,9‐octahydro‐1H‐xanthene‐1,8‐dione] | 125 | 11.05 | ++++ (>60% (++++)) |  | 

Compound | MNTD (Vero cells; Table S1, Vero cells) [µM] | % Cell viability (CHIKV DRDE-07) [%] | CPE (CHIKV DRDE-07) | MNTD (Vero cells; [1]) [µM] | Cell Viability (CHIKV DRDE-07) [%]
O=C1NC(c2ccc(C(F)(F)F)cc2)c2c(ccc3ccccc23)O1 (centres unmarked) [DCR70, 1-[4-(trifluoromethyl)phenyl]-1H,2H,3H-naphtho[1,2-e][1,3]oxazin-3-one] | 45.44 | 10.59 | ++++ (>60% (++++)) |  | 
CC(=O)Cc1noc(-c2ccncc2)n1 [DCR82, 1-[5-(pyridin-4-yl)-1,2,4-oxadiazol-3-yl]propan-2-one] | 125 | 14.42 | ++++ (>60% (++++)) |  | 
O=C(c1cccnc1)n1nc(-c2ccc(O)cc2)cc1-c1ccccc1 [DCR55, 4-[5-phenyl-1-(pyridine-3-carbonyl)-1H-pyrazol-3-yl]phenol] | 31.25 | 17.69 | ++++ (>60% (++++)) |  | 
O=C(c1cccnc1)n1nc(-c2ccc(O)cc2)cc1-c1ccc(Cl)cc1Cl [DCR54, 4-[5-(2,4-dichlorophenyl)-1-(pyridine-3-carbonyl)-1H-pyrazol-3-yl]phenol] | 15.62 | 8.73 | ++++ (>60% (++++)) |  | 
O=C(N/N=C/c1ccc(Cl)cc1Cl)c1cccnc1 [DCR26, (E)-N'-(2,4-dichlorobenzylidene)nicotinohydrazide] | 31.25 | 26.11 | ++++ (>60% (++++)) |  | 
O=C(N/N=C/c1ccccc1Br)c1ccncc1 [DCR38, (E)-N'-(2-bromobenzylidene)isonicotinohydrazide] | 31.25 | 25.1 | ++++ (>60% (++++)) |  | 
COc1cc(/C=N/NC(=O)c2ccncc2)cc(OC)c1OC [DCR42, (E)-N'-(3,4,5-trimethoxybenzylidene)isonicotinohydrazide] | 31.25 | 12.22 | ++++ (>60% (++++)) |  | 
Cc1ccc(/C=N/NC(=O)c2cccnc2)cc1 [DCR16, (E)-N'-(4-methylbenzylidene)nicotinohydrazide] | 31.25 | 18.49 | ++++ (>60% (++++)) |  | 
O=C1NC(c2ccc(F)cc2)c2c(ccc3ccccc23)O1 (centres unmarked) [DCR65, 1-(4-fluorophenyl)-1H,2H,3H-naphtho[1,2-e][1,3]oxazin-3-one] | 53.27 | 12.63 | ++++ (>60% (++++)) |  | 
COc1ccc(C2NC(=O)NC(C)=C2C(=O)OCc2ccc(Cl)cc2)cc1 (centres unmarked) [DCR100, (4-chlorophenyl)methyl 4-(4-methoxyphenyl)-6-methyl-2-oxo-1,2,3,4-tetrahydropyrimidine-5-carboxylate] | 323.15 | 12.84 | ++++ (>60% (++++)) |  | 
O=C(N/N=C/c1ccc(Cl)cc1Cl)c1ccncc1 [DCR41, (E)-N'-(2,4-dichlorobenzylidene)isonicotinohydrazide] | 31.25 | 35.79 | ++++ (>60% (++++)) |  | 
CC1CN(c2ccc(C(=N)NO)c(Cl)c2)CC(C)N1 (centres unmarked) [DCR149, 2-Chloro-4-(3,5-dimethyl-piperazin-1-yl)-N-hydroxy-benzamidine] | 125 | -21.8 | ++++ (>60% (++++)) |  | 
O=C(CCl)NNC(=O)c1cccnc1 [DCR8, N'-(2-chloroacetyl)nicotinohydrazide] | 31.25 | 13.8 | ++++ (>60% (++++)) |  | 
CC1=C(C(=O)OCC[N+](C)(C)C)C(c2ccc(C)cc2)NC(=O)N1 (centres unmarked) [DCR105, N,N,N-trimethyl-2-({[6-methyl-4-(4-methylphenyl)-2-oxo-1,2,3,4-tetrahydropyrimidin-5-yl]carbonyl}oxy)ethanaminium] | 125 | 2.45 | ++++ (>60% (++++)) |  | 
COc1ccc(/C(=N\NC(=O)c2ccncc2)c2ccccc2)cc1 [DCR53, N'-[(1Z)-(4-methoxyphenyl)(phenyl)methylidene]pyridine-4-carbohydrazide] | 31.25 | 11.42 | ++++ (>60% (++++)) |  | 
N#Cc1ccccc1NCc1ccccc1 [DCR147, 2-Benzylamino-benzonitrile] | 125 | 17.97 | ++++ (>60% (++++)) |  | 
Nc1nc(N)c2ccccc2n1 [DCR 134, Quinazoline-2,4-diamine] | 150 |  | + (<30%) | 150 | 75.9
O=C(c1cccnc1)n1nc(-c2ccc(O)cc2)cc1-c1cccc([N+](=O)[O-])c1 [DCR63, 4-[5-(3-nitrophenyl)-1-(pyridine-3-carbonyl)-1H-pyrazol-3-yl]phenol] | 31.25 | -4.2 | ++++ (>60% (++++)) |  | 
COc1ccc(Br)cc1-c1cc(-c2ccc(O)cc2)nn1C(=O)c1cccnc1 [DCR61, 4-[5-(5-bromo-2-methoxyphenyl)-1-(pyridine-3-carbonyl)-1H-pyrazol-3-yl]phenol] | 31.25 | 12.22 | ++++ (>60% (++++)) |  | 
